From ChEMBL document CHEMBL1201862, “PubChem BioAssay data set” (2004)
Where a name gives a salt, the structure may show the parent alone.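 How tested: cells in 96-well plates exposed to compound for 48 hours at five concentrations. The concentration for 50% growth inhibition is given as GI50.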 Calls of active or inactive are those of the source. Rule as the data show it: active = GI50 up to about 1.1 µM and inactive = higher.

What was measured:
Experiment in all cases: NCI-60 cell line screen, 48 h
[1] = system: NCI/ADR-RES
[2] = system: UO-31
[3] = system: PC-3
[4] = system: MCF7
[5] = system: HCT-116
[6] = system: Hs-578T
[7] = system: ACHN
[8] = system: MDA-MB-435
[9] = system: SN12C
[10] = system: HOP-92
[11] = system: U-251
[12] = system: NCI-H226
[13] = system: HT-29
[14] = system: K562
[15] = system: SK-OV-3
[16] = system: TK-10
[17] = system: SW-620
[18] = system: SK-MEL-2
[19] = system: HCT-15
[20] = system: MOLT-4
[21] = system: DU-145
[22] = system: COLO 205
[23] = system: SF-295
[24] = system: OVCAR-5
[25] = system: CAKI-1
[26] = system: M14
[27] = system: SNB-75
[28] = system: SK-MEL-28
[29] = system: RPMI-8226
[30] = system: KM12
[31] = system: OVCAR-3
[32] = system: IGROV-1
[33] = system: SK-MEL-5
[34] = system: T47D
[35] = system: SR
[36] = system: NCI-H522
[37] = system: EKVX
[38] = system: A549
[39] = system: NCI-H460
[40] = system: Malme-3M
[41] = system: HCC 2998
[42] = system: MDA-MB-231
[43] = system: OVCAR-8
[44] = system: SF-268
[45] = system: OVCAR-4
[46] = system: RXF 393
[47] = system: NCI-H23
[48] = system: A498
[49] = system: HOP-62
[50] = system: UACC-257
[51] = system: LOX IMVI
[52] = system: UACC-62
[53] = system: SNB-19
[54] = system: BT-549
[55] = system: 786-0
[56] = system: SF-539
[57] = system: HL-60
[58] = system: CCRF-CEM

With `CN(C)CCC=C1c2ccccc2C=Cc2ccccc21` [CYCLOBENZAPRINE HYDROCHLORIDE] the GI50 [1] was 16.3 µM (inactive), the GI50 [2] was 15.8 µM (inactive) and the GI50 [3] was 16.6 µM (inactive). The GI50 [4] was 16.3 µM (inactive), the GI50 [5] was 15 µM (inactive) and the GI50 [6] was 18.8 µM (inactive). The GI50 [7] was 17.2 µM (inactive), the GI50 [8] was 16.7 µM (inactive) and the GI50 [9] was 16.9 µM (inactive). For the same compound, the GI50 [10] was 15.6 µM (inactive), the GI50 [11] was 16.3 µM (inactive) and the GI50 [12] was 0.0374 µM (active). For the same compound, the GI50 [13] was 5.25 µM (inactive), the GI50 [14] was 18.5 µM (inactive) and the GI50 [15] was 16.1 µM (inactive). For the same compound, the GI50 [16] was 16.2 µM (inactive), the GI50 [17] was 17.1 µM (inactive) and the GI50 [18] was 16.3 µM (inactive). For the same compound, the GI50 [19] was 17.7 µM, the GI50 [20] was 16.8 µM (inactive) and the GI50 [21] was 18 µM (inactive). The GI50 [22] was 14.4 µM (inactive), the GI50 [23] was 17.2 µM (inactive) and the GI50 [24] was 15 µM (inactive). The GI50 [25] was 17 µM (inactive), the GI50 [26] was 15.8 µM (inactive) and the GI50 [27] was 14.7 µM (inactive). For the same compound, the GI50 [28] was 16.1 µM (inactive), the GI50 [29] was 18.3 µM (inactive) and the GI50 [30] was 18.5 µM (inactive). The GI50 [31] was 15.5 µM (inactive), the GI50 [32] was 16.7 µM (inactive) and the GI50 [33] was 14 µM (inactive). For the same compound, the GI50 [34] was 19.5 µM (inactive), the GI50 [35] was 17.9 µM (inactive) and the GI50 [36] was 17.9 µM (inactive). For the same compound, the GI50 [37] was 10.9 µM (inactive), the GI50 [38] was 20 µM (inactive) and the GI50 [39] was 15.4 µM (inactive). For the same compound, the GI50 [40] was 16.9 µM (inactive), the GI50 [41] was 5.4 µM (inactive) and the GI50 [42] was 17.3 µM (inactive). The GI50 [43] was 16 µM (inactive), the GI50 [44] was 15.8 µM (inactive) and the GI50 [45] was 23.1 µM (inactive). For the same compound, the GI50 [46] was 14.5 µM (inactive), the GI50 [47] was 18.7 µM (inactive) and the GI50 [48] was 15.8 µM (inactive). For the same compound, the GI50 [49] was 16.5 µM (inactive), the GI50 [50] was 14.8 µM (inactive) and the GI50 [51] was 16.7 µM (inactive). For the same compound, the GI50 [52] was 16.6 µM (inactive), the GI50 [53] was 19.8 µM (inactive) and the GI50 [54] was 17.4 µM (inactive). For the same compound, the GI50 [55] was 16.1 µM (inactive).
With `Cl/C(=C\C=N\c1ccc(I)cc1)c1ccc2ccccc2c1` the GI50 [1] was 14.9 µM (inactive), the GI50 [2] was 17.5 µM (inactive) and the GI50 [3] was 25.3 µM (inactive). The GI50 [4] was 23.2 µM (inactive), the GI50 [5] was 16.1 µM (inactive) and the GI50 [6] was 28.4 µM (inactive). For the same compound, the GI50 [56] was 19.9 µM (inactive), the GI50 [7] was 10.5 µM (inactive) and the GI50 [8] was 9.42 µM (inactive). The GI50 [9] was 17.9 µM (inactive), the GI50 [10] was 41.6 µM (inactive) and the GI50 [11] was 16.4 µM (inactive). The GI50 [12] was 20.8 µM (inactive), the GI50 [13] was 40.5 µM (inactive) and the GI50 [14] was 6.14 µM (inactive). For the same compound, the GI50 [15] was 22.5 µM (inactive), the GI50 [16] was 16.4 µM (inactive) and the GI50 [17] was 19.1 µM (inactive). For the same compound, the GI50 [57] was 12.9 µM (inactive), the GI50 [18] was 18.9 µM (inactive) and the GI50 [19] was 12.6 µM. The GI50 [20] was 5.13 µM (inactive), the GI50 [21] was 21.4 µM (inactive) and the GI50 [22] was 16.3 µM (inactive). The GI50 [23] was 19.1 µM (inactive), the GI50 [24] was 34.6 µM (inactive) and the GI50 [25] was 11.9 µM (inactive). The GI50 [26] was 14.3 µM (inactive), the GI50 [27] was 28.4 µM (inactive) and the GI50 [28] was 21.4 µM (inactive). The GI50 [29] was 17.3 µM (inactive), the GI50 [30] was 13.1 µM (inactive) and the GI50 [31] was 15 µM (inactive). For the same compound, the GI50 [32] was 17.9 µM (inactive), the GI50 [33] was 18 µM (inactive) and the GI50 [34] was 10.4 µM (inactive). The GI50 [35] was 3.91 µM (inactive), the GI50 [36] was 27.2 µM (inactive) and the GI50 [37] was 36.2 µM (inactive). The GI50 [38] was 33.3 µM (inactive), the GI50 [39] was 24.2 µM (inactive) and the GI50 [40] was 20.6 µM (inactive). For the same compound, the GI50 [41] was 0.0322 µM (active), the GI50 [42] was 14.5 µM (inactive) and the GI50 [43] was 17.4 µM (inactive). For the same compound, the GI50 [44] was 20.7 µM (inactive), the GI50 [45] was 24.5 µM (inactive) and the GI50 [46] was 22.2 µM (inactive). For the same compound, the GI50 [47] was 16 µM (inactive), the GI50 [48] was 47.6 µM (inactive) and the GI50 [49] was 17.7 µM (inactive). The GI50 [58] was 7.29 µM (inactive), the GI50 [50] was 15.4 µM (inactive) and the GI50 [51] was 8.53 µM (inactive). For the same compound, the GI50 [52] was 8.83 µM (inactive), the GI50 [53] was 18.3 µM (inactive) and the GI50 [54] was 16.9 µM (inactive). For the same compound, the GI50 [55] was 17.6 µM (inactive).
With `Cc1oc2nc(N(C)C)n3cnnc3c2c1C` the GI50 [1] was > 100 µM (inactive), the GI50 [2] was > 100 µM (inactive) and the GI50 [3] was > 100 µM (inactive). For the same compound, the GI50 [4] was > 100 µM (inactive), the GI50 [5] was > 100 µM (inactive) and the GI50 [6] was > 100 µM (inactive). For the same compound, the GI50 [56] was > 100 µM (inactive), the GI50 [7] was > 100 µM (inactive) and the GI50 [8] was > 100 µM (inactive). The GI50 [9] was > 100 µM (inactive), the GI50 [10] was > 100 µM (inactive) and the GI50 [11] was > 100 µM (inactive). The GI50 [12] was > 100 µM (inactive), the GI50 [13] was > 100 µM (inactive) and the GI50 [14] was > 100 µM (inactive). For the same compound, the GI50 [15] was > 100 µM (inactive), the GI50 [16] was > 100 µM (inactive) and the GI50 [17] was > 100 µM (inactive). For the same compound, the GI50 [57] was > 100 µM (inactive), the GI50 [18] was > 100 µM (inactive) and the GI50 [19] was > 100 µM. The GI50 [20] was > 100 µM (inactive), the GI50 [21] was > 100 µM (inactive) and the GI50 [22] was > 100 µM (inactive). The GI50 [23] was > 100 µM (inactive), the GI50 [24] was > 100 µM (inactive) and the GI50 [25] was > 100 µM (inactive). For the same compound, the GI50 [26] was > 100 µM (inactive), the GI50 [27] was 50.6 µM (inactive) and the GI50 [28] was > 100 µM (inactive). The GI50 [29] was > 100 µM (inactive), the GI50 [30] was > 100 µM (inactive) and the GI50 [31] was > 100 µM (inactive). For the same compound, the GI50 [32] was > 100 µM (inactive), the GI50 [33] was > 100 µM (inactive) and the GI50 [34] was > 100 µM (inactive). For the same compound, the GI50 [35] was > 100 µM (inactive), the GI50 [36] was > 100 µM (inactive) and the GI50 [37] was > 100 µM (inactive). For the same compound, the GI50 [38] was > 100 µM (inactive), the GI50 [39] was > 100 µM (inactive) and the GI50 [41] was > 100 µM (inactive). The GI50 [42] was > 100 µM (inactive), the GI50 [43] was > 100 µM (inactive) and the GI50 [44] was > 100 µM (inactive). The GI50 [45] was > 100 µM (inactive), the GI50 [46] was > 100 µM (inactive) and the GI50 [47] was > 100 µM (inactive). For the same compound, the GI50 [48] was > 100 µM (inactive), the GI50 [49] was > 100 µM (inactive) and the GI50 [58] was > 100 µM (inactive). For the same compound, the GI50 [50] was > 100 µM (inactive), the GI50 [52] was > 100 µM (inactive) and the GI50 [53] was > 100 µM (inactive). The GI50 [54] was > 100 µM (inactive) and the GI50 [55] was > 100 µM (inactive).
